Source: ChEMBL document CHEMBL4359935, “Selective toxicity of chrysin on mitochondria isolated from liver of a HCC rat model” (Bioorg Med Chem, 2019)
Activity calls are given as the source filed them. No cut-off for these calls is given here.

Legend:
[1] = target: Succinate dehydrogenase [ubiquinone] flavoprotein subunit, mitochondrial (Rattus norvegicus) (UniProt Q920L2); assay: Inhibition of SDH in HCC model Sprague-Dawley rat hepatocyte mitochondria at 10 to 40 uM incubated for 40 mins by MTT assay
Rattus norvegicus [2] = species: Rattus norvegicus; assay: Induction of mitochondrial swelling in HCC model Sprague-Dawley rat hepatocyte at 10 to 40 uM; format: functional
Hepatocyte [3] = assay: Induction of apoptosis in isolated HCC model Sprague-Dawley rat hepatocytes assessed as increase in cytochrome C release at 20 uM in presence of BHT by ELISA; format: functional, cell-based
Hepatocyte [4] = assay: Induction of apoptosis in isolated HCC model Sprague-Dawley rat hepatocytes assessed as increase in cytochrome C release at 20 uM in presence of CsA by ELISA; format: functional, cell-based
[5] = Effect on SDH activity in Sprague-Dawley rat hepatocyte mitochondria at 10 to 40 uM incubated for 40 mins by MTT assay; format: ADME; conditions: hepatocytes
[6] = Induction of mitochondrial membrane potential disruption in Sprague-Dawley rat hepatocyte assessed as collapsed mitochondrial membrane potential at 10 to 40 uM incubated upto 60 mins by Rhodamine 123 probe based fluorescence spectrophotometry; conditions: hepatocytes, 1 h
Hepatocyte [7] = assay: Induction of apoptosis in isolated HCC model Sprague-Dawley rat hepatocytes assessed as increase in cytochrome C release at 20 uM by ELISA relative to control; format: functional
[8] = Induction of ROS production in Sprague-Dawley rat hepatocyte mitochondria at 10 to 40 uM incubated upto 60 mins by DCFH probe based fluorescence spectrophotometry; conditions: hepatocytes, 1 h
Hepatocyte [9] = assay: Induction of apoptosis in isolated HCC model Sprague-Dawley rat hepatocytes assessed as increase in caspase 3 activity at 12 uM relative to control; format: functional
Rattus norvegicus [10] = species: Rattus norvegicus; assay: Induction of ROS production in HCC model Sprague-Dawley rat hepatocyte mitochondria at 10 to 40 uM incubated upto 60 mins by DCFH probe based fluorescence spectrophotometer; format: functional
[11] = Induction of mitochondrial swelling in Sprague-Dawley rat hepatocyte at 10 to 40 uM; conditions: hepatocytes
Rattus norvegicus [12] = species: Rattus norvegicus; assay: Induction of mitochondrial membrane potential disruption in HCC model Sprague-Dawley rat hepatocyte assessed as collapsed mitochondrial membrane potential at 10 to 40 uM incubated upto 60 mins by Rhodamine 123 probe based fluorescence spectrophotometry; format: functional

Succinate dehydrogenase [ubiquinone] flavoprotein subunit, mitochondrial (Rattus norvegicus), sequence (Q920L2 whole entry): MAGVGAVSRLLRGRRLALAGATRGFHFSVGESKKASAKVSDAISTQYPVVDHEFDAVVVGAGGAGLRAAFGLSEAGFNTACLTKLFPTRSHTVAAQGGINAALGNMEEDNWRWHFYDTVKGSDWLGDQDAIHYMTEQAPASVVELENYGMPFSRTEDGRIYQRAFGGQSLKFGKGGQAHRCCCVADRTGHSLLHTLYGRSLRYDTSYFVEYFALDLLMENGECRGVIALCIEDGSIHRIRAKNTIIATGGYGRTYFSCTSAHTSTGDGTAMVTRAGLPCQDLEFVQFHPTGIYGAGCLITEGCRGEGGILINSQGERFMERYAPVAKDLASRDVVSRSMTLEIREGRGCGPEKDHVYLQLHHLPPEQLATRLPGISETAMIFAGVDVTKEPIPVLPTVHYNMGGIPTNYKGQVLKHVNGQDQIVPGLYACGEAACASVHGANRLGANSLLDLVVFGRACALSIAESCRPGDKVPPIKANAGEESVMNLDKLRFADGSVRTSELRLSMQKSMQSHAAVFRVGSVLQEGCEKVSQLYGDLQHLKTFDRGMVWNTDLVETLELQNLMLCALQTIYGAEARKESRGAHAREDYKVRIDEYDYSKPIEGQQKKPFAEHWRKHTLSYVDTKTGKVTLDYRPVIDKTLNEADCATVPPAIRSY

inhibition [1]: Active
SMILES: O=c1cc(-c2ccccc2)oc2cc(O)cc(O)c12 [CHRYSIN]
Activity (Rattus norvegicus [2]): Active
Activity (Hepatocyte [3]): inactive
Activity (Hepatocyte [4]): inactive
Activity [5]: Non-Toxic
Activity [6]: Non-Toxic
fold change (FC) (Hepatocyte [7]): 1.6
Activity [8]: Non-Toxic
fold change (FC) (Hepatocyte [9]): 2.4
Activity (Rattus norvegicus [10]): Active
Activity [11]: Non-Toxic
Activity (Rattus norvegicus [12]): Active
